# Several values for one entry are separate records, joined by “and”; a condition that tells them apart may be missing. Equal entries are not always repeated.
# How the values were obtained:
# PaTu-T cells [1] = assay: Zebrafish embryo xenotransplantation: invasion and metastatic behaviour of pretreated PaTu-T cells; format: in vivo, human
# Description: (§1) Zebrafish (Danio rerio) (Tuebingen line, AIB strain (Albinos) and Tg (fli1:eGFP) were handled in compliance with local animal care regulations and standard protocols of the Netherlands and Germany. Fish were kept at 28°C in aquaria with day/night light cycles (10 h dark versus 14 h light periods). The developing embryos were kept in an incubator at constant temperatures.
# (§2) The selective RARα antagonist Ro-41-5253 was purchased from Biomol International, dissolved in DMSO and cells were treated overnight prior to injections at a final concentration of 200 nM (50% inhibition at 60nM)^14,15. Retinoic acid (ATRA, Sigma) was added to cells ON at a final concentration of 1 µM.
# (§3) Cells were stained with CM-Dil (red fluorescence) at a 1:1000 dilution according to the manufacturers protocol (Vybrant, Invitrogen). Cells were suspended in 67% DPBS for injection into embryos. 2dpf zebrafish embryos were dechorionated and tranquilized with tricaine (Sigma). An injection needle (15µm diameter) with a manual injector (Eppendorf; Celltram Vario) was used to inject ∼200 cells into the yolk sac of 2dpf zebrafish embryos. On average 80 embryos were injected for each treatment and embryos with detectable cell scatter 2 h after the transfer (and therefore presumably due to the transfer procedure) were excluded from further analysis. Presence of cells was checked after 2 h incubation at 31°C and embryos were subsequently kept at 35°C. We defined metastasis based on the number of fluorescent cells that were detected outside the yolk sac 2 days after the transfer. Presence of 5 or more cells was considered "metastasised" and percentages of metastasised fish in each experiment were counted. The occurence of micro-metastasis is indicated by cell clusters of ≥4 cells presumably originating from cell division. PaTu-S cells and ASPC1 cells were transfected ON with indicated concentrations of miR-10a siRNA in the presence of ICA-Fectin TM442 (Eurogentec, Belgium). Whole cell lysates were prepared 36h post-transfection and 40 µg of total lysates were separated on 7.5% PAA-gels and blotted with anti E-cadherin, α-catenin, β-catenin (all mAbs, Transduction Labs) and actin antibodies (mAb Sigma-Aldrich, Germany).
# (§4) Morpholino antisense oligonucleotides were obtained from Gene Tools, LLC (OR, USA) and used as previously described^19. The miR-10a antisense Morpholino sequence is: […]. Standard control Morpholino was […]. Both miR-10a and control Morpholinos were fluorescein labeled. The siRNAs for human HOXB1, human HOXB3 and human RARα were purchased from Santa Cruz Biotechnology (HOXB1: sc-38686, HOXB3: sc-38690 and RARα: sc-29465). EndoPorter (Gene Tools, LLC) was used to deliver Morpholinos and siRNAs into cells and efficiencies for Morpholinos were checked by fluorescence microscopy to be >98%. For the miR-10a siRNA, the sense strand corresponds to […]. The sequence of control siRNA (miR-196a) was […] with the corresponding antisense sequence). 30 µl of each siRNA oligo (50 µM) were annealed by gradually cooling from 98°C to 20°C in a volume of 75 µl annealing buffer (50 mM Tris, pH 7.8, 100 mM NaCl RNAse free). The effect of miR-10a Morpholinos on miR-10a function was tested with a sensor construct: pCS2+ EGFP 4x miR-10 AS containing 4 copies of a miR-10a antisense sequence.
# PaTu-T cells [2] = assay: Cell survival and cell cycle distribution by propidium iodine staining (FACS); format: cell-based, human
# Excerpt: Targeting endogenous miR-10a with Morpholinos rendered PaTu-T-cells non-invasive and prevented metastatic behaviour in zebrafish embryos, whereas a control Morpholino had no such effect (Fig.4 B, Table1 and Supplemental Table 1). […] (analysed by propidium iodine (PI) staining, data not shown).
# We used the selective RARα antagonist Ro-41-5253; to analyze its anti-migratory activity in an in vitro migration assay ("scratch assay") and in the zebrafish xenotransplantation model, respectively. […] Similar results were obtained when PaTu-T cells were treated with RAR -specific siRNAs (Supplemental Table 1 and Supplemental Fig. 1).
# Supplemental Figure 3: Cell cycle analysis of RARα siRNA or Ro-415253 treated PaTu-T cells. Cells were treated with either DMSO control (A), RARα siRNA (B) or 200 nM Ro-415253 (C) and fixed after 24h with 70% EtOH. Following propidium iodine (PI) staining the cells were analysed by a LSR2 FACS sorter (Becton Dickinson). […] Gate P2 indicates cells in G0/1 phase, gate 3 represents cells in S phase and gate 4 represents Cells in M/G2 phase.
# PaTu-S cells = assay: Zebrafish embryo xenotransplantation: invasion and metastatic behaviour of pretreated PaTu-S cells; format: in vivo, human
# Description: as §1, §2, §3, §4
# [3] = Experiment 1, number of embryos (equals the Day 1 total)
# [4] = Experiment 1, Day 1, number of embryos
# [5] = Experiment 1, Day 2, number of embryos
# [6] = Experiment 1, Day 3, number of embryos
# [7] = Experiment 1, summary line, percentage in brackets (of embryos alive)
# [8] = Experiment 2, number of embryos (equals the Day 1 total)
# [9] = Experiment 2, Day 1, number of embryos
# [10] = Experiment 2, Day 2, number of embryos
# [11] = Experiment 2, Day 3, number of embryos
# [12] = Experiment 2, summary line, percentage in brackets (of embryos alive)
compound,measurement,setting,value
"CCCCCCCOc1cc2c(cc1/C(C)=C/c1ccc(C(=O)O)cc1)C(C)(C)CCS2(=O)=O [Ro-41-5253, Benzoic acid, 4-(2-(7-(heptyloxy)-3,4-dihydro-4,4-dimethyl-2H-1-benzothiopyran-6-yl)-1-propenyl)-, S,S-dioxide, (E)]",total >5,PaTu-T cells [1]; [3],1
same,Migration 5 to 20,PaTu-T cells [1]; [4],1
same,Migration <5,PaTu-T cells [1]; [4],0
same,Migration >20,PaTu-T cells [1]; [4],0
same,total >5,PaTu-T cells [1]; [4],1
same,Migration 5 to 20,PaTu-T cells [1]; [5],0
same,Migration <5,PaTu-T cells [1]; [5],0
same,Migration >20,PaTu-T cells [1]; [5],0
same,total >5,PaTu-T cells [1]; [5],0
same,Migration 5 to 20,PaTu-T cells [1]; [6],0
same,Migration <5,PaTu-T cells [1]; [6],0
same,Migration >20,PaTu-T cells [1]; [6],0
same,total >5,PaTu-T cells [1]; [6],0
same,total >5,PaTu-T cells [1]; [7],1.4%
same,total >5,PaTu-T cells [1]; [8],2
same,Migration 5 to 20,PaTu-T cells [1]; [9],2
same,Migration <5,PaTu-T cells [1]; [9],0
same,Migration >20,PaTu-T cells [1]; [9],0
same,total >5,PaTu-T cells [1]; [9],2
same,Migration 5 to 20,PaTu-T cells [1]; [10],2
same,Migration <5,PaTu-T cells [1]; [10],0
same,Migration >20,PaTu-T cells [1]; [10],0
same,total >5,PaTu-T cells [1]; [10],2
same,Migration 5 to 20,PaTu-T cells [1]; [11],0
same,Migration <5,PaTu-T cells [1]; [11],0
same,Migration >20,PaTu-T cells [1]; [11],0
same,total >5,PaTu-T cells [1]; [11],0
same,total >5,PaTu-T cells [1]; [12],2.9%
same,Average % (observed metastasised embryos),"PaTu-T cells [1]; Table 1, pretreated PaTu-T cells transplanted into zebrafish embryos, average of 2-4 experiments",2.2%
same,"%migration, Average","PaTu-T cells [1]; average of experiments, PaTu-T",2.2%
same,%migration,"PaTu-T cells [1]; single experiments, PaTu-T, listed as RARαinhibitor",1.4% and 2.9%
same,cell cycle distribution,"PaTu-T cells [2]; 24h, Ro-415253 at 200 nM, PI staining, FACS",No differences
same,general cell survival,PaTu-T cells [2]; propidium iodine (PI) staining,no adverse affects
"CC1=C(/C=C/C(C)=C/C=C/C(C)=C/C(=O)O)C(C)(C)CCC1 [RA, all trans retinoic acid]",total >5,PaTu-S cells; [3],14
same,Migration 5 to 20,PaTu-S cells; [4],11
same,Migration <5,PaTu-S cells; [4],1
same,Migration >20,PaTu-S cells; [4],3
same,total >5,PaTu-S cells; [4],14
same,Migration 5 to 20,PaTu-S cells; [5],10
same,Migration <5,PaTu-S cells; [5],0
same,Migration >20,PaTu-S cells; [5],4
same,total >5,PaTu-S cells; [5],14
same,Migration 5 to 20,PaTu-S cells; [6],19
same,Migration <5,PaTu-S cells; [6],0
same,Migration >20,PaTu-S cells; [6],3
same,total >5,PaTu-S cells; [6],12
same,total >5,PaTu-S cells; [7],24.1%
same,total >5,PaTu-S cells; [8],20
same,Migration 5 to 20,PaTu-S cells; [9],15
same,Migration <5,PaTu-S cells; [9],1
same,Migration >20,PaTu-S cells; [9],5
same,total >5,PaTu-S cells; [9],20
same,Migration 5 to 20,PaTu-S cells; [10],13
same,Migration <5,PaTu-S cells; [10],1
same,Migration >20,PaTu-S cells; [10],4
same,total >5,PaTu-S cells; [10],17
same,Migration 5 to 20,PaTu-S cells; [11],12
same,Migration <5,PaTu-S cells; [11],1
same,Migration >20,PaTu-S cells; [11],5
same,total >5,PaTu-S cells; [11],17
same,total >5,PaTu-S cells; [12],31.2%
same,Average % (observed metastasised embryos),"PaTu-S cells; Table 1, pretreated PaTu-S cells transplanted into zebrafish embryos, average of 2-4 experiments",27.7%
same,"%migration, Average","PaTu-S cells; average of experiments, PaTu-S",27.7%
same,%migration,"PaTu-S cells; single experiments, PaTu-S",24.1% and 31.2%

# Source: patent EP2329817A1, “Retinoic acid receptor antagonists, miR-10a inhibitors and inhibitors of HOXB1 or HOXB3 repressors for treating pancreatic cancer” (Ernst-Moritz-Arndt-Universität Greifswald, priority 2009, dated 2011)
